Data taken from patent US9469645B2, “Compounds and compositions for the treatment of parasitic diseases” (Novartis AG, priority 2009, dated 2016).
pEC50: −log10 of the molar value.

Tests used:
W2 strain = test: parasite proliferation assay in infected red blood cells (SYBR Green I), W2 strain; format: cell-based; conditions: Erythrocyte
From the text: Compounds of the invention can be assayed to measure their capacity to inhibit proliferation of parasitemia in infected red blood cells. The proliferation is quantified by the addition of SYBR Green I (INVITROGEN)® dye which has a high affinity for double stranded DNA.

3D7 P. falciparum strain = test: parasite proliferation assay in infected red blood cells (SYBR Green I); format: cell-based, Plasmodium falciparum; conditions: Plasmodium falciparum, 3D7, Erythrocyte, 3D7 strain; read-out: EC50 3D7 strain
Procedure, shortened: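 P. falciparum 3D7 grown in O+ human erythrocytes to 3–8% parasitemia and exposed to compounds. Proliferation read as the increase in parasite DNA. Detection used SYBR Green I in saponin/triton-X/EDTA lysis buffer, with overnight lysis at room temperature.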

Compound | pEC50 (W2 strain) | pEC50 (3D7 P. falciparum strain) | pEC50 (W2 strain; Plasmodium falciparum)
Cc1ccc(Nc2c(-c3cccc(Cl)c3)nc3n2CCN(C(=O)C(C)(C)N)C3)cc1 [Compound 397] | 5.78 | 5.61 | 
CC1(C)c2nc(-c3ccc(F)cc3)c(Sc3ccc(F)cc3)n2CCN1C(=O)CN [Compound 715] |  | 8.22 | 8.22
CC(C)(N)C(=O)N1CCn2c(nc(-c3ccc(F)cc3)c2Nc2cccc(Cl)c2)C1 [Compound 639] |  | 7.09 | 7.03
NCC(=O)N1CCn2c(nc(-c3ccc(Br)cc3)c2Nc2ccc(F)cc2)C1 [Compound 54] | 6.12 | 5.89 | 
Cc1ccc(Nc2c(-c3ccc(F)cc3)nc3n2CCN(C(=O)C(C)c2ccc(Cl)cc2)C3)cc1 (centres unmarked) [Compound 173] | 6.88 | 6.85 | 
CCC(=O)Nc1ccc(C[C@H](N)C(=O)N2CCn3c(nc(-c4cccc(F)c4)c3Nc3ccc(F)cc3)C2)cc1 [Compound 261] | 5.38 | 5.15 | 
Cc1ccc(Nc2c(-c3ccc(F)cc3)nc3n2CCN(C(=O)C(C)Nc2c(C)cccc2C)C3)cc1 (centres unmarked) [Compound 380] | 5.75 | 5.95 | 
Cc1ccc(Nc2c(-c3ccc(F)cc3)nc3n2CCN(C(=O)[C@H](C)O)C3)cc1 [Compound 81] | 6.35 | 6.52 | 
Cc1ccc(Nc2c(-c3ccc(F)cc3)nc3n2CCN(C(=O)[C@@H](N)c2ccccc2)C3)cc1 [Compound 98] | 8.10 | 8.00 | 
O=C(Cc1ccc(Cl)c(F)c1)N1CCn2c(nc(-c3ccc(F)cc3)c2Nc2ccc(Cl)c(F)c2)C1 [Compound 363] | 5.95 | 5.76 | 
Cc1ccc(Nc2c(-c3ccc(F)cc3)nc3n2CCN(C(=O)C(Oc2ccccc2C)C(C)C)C3)cc1 (centres unmarked) [Compound 208] | 5.98 | 5.23 | 
Cc1cc(Nc2c(-c3ccc(F)cc3)nc3n2C(C)(C)CN(C)C3)ccc1Cl [Compound 610] |  | 5.20 | 5.31
Cc1ccc(Nc2c(-c3ccc(F)cc3)nc3n2CCN(C(=O)C(C)(CO)CO)C3)cc1 [Compound 245] | 5.74 | 5.60 | 
Cc1ccc(Nc2c(-c3ccc(F)cc3)nc3n2CCN(CCN2CCn4c(nc(-c5ccc(F)cc5)c4Nc4ccc(C)cc4)C2)C3)cc1 [Compound 155] | 6.31 | 5.67 | 
CC(C)(N)C(=O)N1CCn2c(nc(-c3ccc(F)cc3)c2Nc2ccc(Br)cc2)C1 [Compound 21] | 7.11 | 7.00 | 
Cc1ccc(Nc2c(-c3ccc(F)cc3)nc3n2CCN(C(=O)[C@H](O)C2CCCCC2)C3)cc1 [Compound 121] | 7.48 | 7.70 | 
CC(C)(N)C(=O)N1CCn2c(nc(-c3ccccc3F)c2Nc2ccc(F)cc2)C1 [Compound 10] | 5.89 | 5.86 | 
CC(C)(N)C(=O)N1CCn2c(nc(-c3ccc(F)cc3)c2Nc2ccc(Cl)c(F)c2)C1 [Compound 94] | 7.28 | 7.40 | 
NC(C(=O)N1CCn2c(nc(-c3ccc(F)cc3)c2Nc2ccc(Cl)c(F)c2)C1)c1ccc(C(F)(F)F)cc1 (centres unmarked) [Compound 368] | 6.54 | 6.28 | 
CC(C)(N)C(=O)N1CCn2c(nc(-c3ccc(F)cc3)c2Nc2ccc(C#N)cc2)C1 [Compound 263] | 6.19 | 6.46 | 
NCC(=O)N1CCn2c(nc(-c3ccc(F)cc3)c2Nc2ccc(Cl)cc2)C1 [Compound 40] | 8.05 | 8.00 | 
Cc1c(Cc2ccccc2)nc2n1[C@H](CCc1ccccc1)CN(C(=O)c1cccnc1)[C@H]2Cc1ccccc1 [Compound 283] | 5.46 | 5.26 | 
CC(C)(C)OC(=O)N[C@@H](Cc1ccc(N)cc1)C(=O)N1CCn2c(nc(-c3cccc(F)c3)c2Nc2ccc(F)cc2)C1 [Compound 243] | 6.16 | 5.53 | 
Cc1ccc(Nc2c(-c3ccc(F)cc3)nc3n2CCN(C(=O)CC2CCNCC2)C3)cc1 [Compound 220] | 6.03 | 5.95 | 
CCCNC(=O)C[C@H](N)C(=O)N1CCn2c(nc(-c3cccc(F)c3)c2Nc2ccc(F)cc2)C1 [Compound 256] | 5.83 | 5.94 | 
